This is an account of results in patent publication US8685436B2, “Use of hydroxyflavanones for masking bitter taste” (Symrise AG, priority 2001, dated 2014).

Where a name gives a salt, the structure may show the parent alone.

A short description of assay [1]: Masking the bitter taste of a β-lactam antibiotic, difference testing and bitter intensity rating by 7 testers. The format is in vivo. An excerpt:
A solution of Faropenem Daloxate ([5R-[3(R*),5α,6α(R*)]]-6-(1-hydroxyethyl)-7-oxo-3-(tetrahydro-2-furanyl)-4-thia-1-azabicyclo[3.2.0]hept-2-ene-2-carboxylic acid (5-methyl-2-oxo-1,3-dioxol-4-yl)methyl ester, CAS No. 141702-36-5, 0.1% by weight in water, sample 1) and a mixture of Faropenem Daloxate+homoeriodictyol disodium salt (each 0.1% by weight in water, sample 2) were made up. A group of 7 testers were each given 3 samples for difference testing. 4 testers received sample 1 as a duplicate sample, 3 testers received sample 2 as a duplicate sample. The samples were tasted in differing orders. Of 7 testers, 7 correctly identified the individual sample. The average bitter intensity of sample 1 was rated 5, that of sample 2 was rated 2 (scale 1 to 5).

For assay [2] the following is noted: relatively high concentrations (450 ppm); cited from earlier work.
Assay [3] can be described thus: Debittering black tea, bitterness rated by an expert group. The format is in vivo. Conditions: Tea sample 2 + 0.05% homoeriodictyol disodium salt; scale 1 just perceptibly bitter, 5 very bitter; tea sample 2 alone rated 5. As to the method:
Two different types of black tea were brewed using boiling water (3 g of tea to 100 ml, allowed to infuse for 3 min, filter) and were then tasted by an expert group. The bitterness was rated using a scale of 1 to 5 (1 just perceptibly bitter, 5 very bitter).

`Cc1oc(=O)oc1COC(=O)C1=C([C@H]2CCCO2)S[C@@H]2[C@@H]([C@@H](C)O)C(=O)N12` (relative stereo) [Faropenem Daloxate, [5R-[3(R*),5α,6α(R*)]]-6-(1-hydroxyethyl)-7-oxo-3-(tetrahydro-2-furanyl)-4-thia-1-azabicyclo[3.2.0]hept-2-ene-2-carboxylic acid (5-methyl-2-oxo-1,3-dioxol-4-yl)methyl ester]: in assay [1] (sample 1: Faropenem Daloxate alone, 0.1% by weight in water), the “average bitter intensity (scale 1 to 5)” value came to 5.
With `COc1ccc(OC(C)C(=O)[O-])cc1.[Na+]` (stereo not shown) [Lactisol, 2(-4-Methoxyphenoxy)propionic acid sodium salt], the bitter-reducing effect entry in assay [2] is given as “weak bitter-reducing effect”.
Consider `COc1cc(C2CC(=O)c3c(O)cc(O)cc3O2)ccc1O` (stereo not shown) [homoeriodictyol disodium salt, 2-(4-hydroxy-3-methoxyphenyl)-5,7-dihydroxychroman-4-one], for which the “average bitter intensity (scale 1 to 5)” value in assay [1] (sample 2: Faropenem Daloxate + homoeriodictyol disodium salt, each 0.1% by weight in water) worked out at 2. In addition, the “Rating (1–5) of bitterness” value in assay [3] was found to be 2.
